Data published in article PMC4961696, “An Enantiomer of an Oral Small-Molecule TSH Receptor Agonist Exhibits Improved Pharmacologic Properties” (Frontiers in Endocrinology, 2016).

Legend:
TSH receptor (TSHR) [1] = target: T1, TSH receptor (TSHR) (Homo sapiens, UniProt P16473); assay: cAMP production in HEK293 cells stably expressing TSHR (agonist dose-response); inactive in HEK-LHR and HEK-FSHR cells; assay type: cell-based
TSH receptor (TSHR) [2] = target: T1, TSH receptor (TSHR); assay: cAMP production in HEK293 cells stably expressing TSHR (agonist dose-response); assay type: cell-based

T1 sequence (P16473 21-764): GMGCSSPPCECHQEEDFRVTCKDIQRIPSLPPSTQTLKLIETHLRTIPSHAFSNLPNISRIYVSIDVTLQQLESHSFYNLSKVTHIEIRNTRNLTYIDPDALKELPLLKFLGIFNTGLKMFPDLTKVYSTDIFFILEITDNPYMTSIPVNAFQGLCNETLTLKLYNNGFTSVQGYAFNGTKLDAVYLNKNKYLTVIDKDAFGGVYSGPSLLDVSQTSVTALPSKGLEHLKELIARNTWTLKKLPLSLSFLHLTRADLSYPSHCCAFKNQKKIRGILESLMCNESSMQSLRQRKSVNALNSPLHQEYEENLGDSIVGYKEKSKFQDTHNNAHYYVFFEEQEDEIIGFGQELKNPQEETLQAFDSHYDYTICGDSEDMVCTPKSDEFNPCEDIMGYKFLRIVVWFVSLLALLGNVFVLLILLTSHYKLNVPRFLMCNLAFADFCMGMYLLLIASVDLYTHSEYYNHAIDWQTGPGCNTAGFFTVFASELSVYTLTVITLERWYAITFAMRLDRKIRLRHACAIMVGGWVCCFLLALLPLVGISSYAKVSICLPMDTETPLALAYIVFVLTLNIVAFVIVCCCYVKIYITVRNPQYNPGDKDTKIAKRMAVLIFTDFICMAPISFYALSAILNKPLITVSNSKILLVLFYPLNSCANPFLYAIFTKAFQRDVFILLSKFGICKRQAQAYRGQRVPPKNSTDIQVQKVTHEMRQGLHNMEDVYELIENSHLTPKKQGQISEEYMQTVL

COc1ccc([C@@H]2Nc3cccc(O)c3C(=O)N2Cc2ccccc2)cc1COc1ccc(NC(C)=O)cc1 [E1]
EC50 (TSH receptor (TSHR) [1]): 0.217 µM

COc1ccc(C2Nc3cccc(O)c3C(=O)N2Cc2ccccc2)cc1COc1ccc(NC(C)=O)cc1 (racemic) [C2]
EC50 (TSH receptor (TSHR) [2]): 0.046 µM

COc1ccc([C@H]2Nc3cccc(O)c3C(=O)N2Cc2ccccc2)cc1COc1ccc(NC(C)=O)cc1 [E2]
EC50 (TSH receptor (TSHR) [1]): 0.018 µM
